According to ChEMBL document CHEMBL1156213, “Imidazo[2,1-b]thiazoles: multitargeted inhibitors of both the insulin-like growth factor receptor and members of the epidermal growth factor family of receptor tyrosine kinases” (Bioorg Med Chem Lett, 2010):
pIC50: −log10 of the molar value.

Experiments:
[1] = biological target: Epidermal growth factor receptor (Homo sapiens, UniProt P00533, L858R)
[2] = biological target: T1, Insulin-like growth factor 1 receptor (Homo sapiens, UniProt P08069); experiment: Inhibition of IGF1R intracellular phosphorylation in human A431 cells by ELISA; type: cell-based, A-431
T1 sequence (P08069 31-736 limits assumed): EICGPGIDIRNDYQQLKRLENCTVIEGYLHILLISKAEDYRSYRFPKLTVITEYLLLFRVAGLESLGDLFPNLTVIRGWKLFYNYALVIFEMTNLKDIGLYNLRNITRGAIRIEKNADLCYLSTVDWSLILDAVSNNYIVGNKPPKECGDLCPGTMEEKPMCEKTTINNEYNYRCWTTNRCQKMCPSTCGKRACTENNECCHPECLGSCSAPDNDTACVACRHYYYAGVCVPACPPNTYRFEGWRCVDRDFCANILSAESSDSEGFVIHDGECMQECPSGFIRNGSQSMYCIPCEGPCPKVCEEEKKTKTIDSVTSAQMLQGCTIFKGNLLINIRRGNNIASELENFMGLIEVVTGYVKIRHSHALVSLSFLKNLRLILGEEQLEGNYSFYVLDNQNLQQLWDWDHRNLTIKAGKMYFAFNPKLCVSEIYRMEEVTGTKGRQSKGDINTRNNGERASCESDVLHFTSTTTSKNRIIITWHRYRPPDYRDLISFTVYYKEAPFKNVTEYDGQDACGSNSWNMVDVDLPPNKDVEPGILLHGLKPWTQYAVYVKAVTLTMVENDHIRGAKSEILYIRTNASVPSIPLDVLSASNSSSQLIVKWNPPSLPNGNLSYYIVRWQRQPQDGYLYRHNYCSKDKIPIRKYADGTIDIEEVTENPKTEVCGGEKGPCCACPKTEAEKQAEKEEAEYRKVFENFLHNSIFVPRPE
T1 sequence (P08069 741-1367 limits assumed): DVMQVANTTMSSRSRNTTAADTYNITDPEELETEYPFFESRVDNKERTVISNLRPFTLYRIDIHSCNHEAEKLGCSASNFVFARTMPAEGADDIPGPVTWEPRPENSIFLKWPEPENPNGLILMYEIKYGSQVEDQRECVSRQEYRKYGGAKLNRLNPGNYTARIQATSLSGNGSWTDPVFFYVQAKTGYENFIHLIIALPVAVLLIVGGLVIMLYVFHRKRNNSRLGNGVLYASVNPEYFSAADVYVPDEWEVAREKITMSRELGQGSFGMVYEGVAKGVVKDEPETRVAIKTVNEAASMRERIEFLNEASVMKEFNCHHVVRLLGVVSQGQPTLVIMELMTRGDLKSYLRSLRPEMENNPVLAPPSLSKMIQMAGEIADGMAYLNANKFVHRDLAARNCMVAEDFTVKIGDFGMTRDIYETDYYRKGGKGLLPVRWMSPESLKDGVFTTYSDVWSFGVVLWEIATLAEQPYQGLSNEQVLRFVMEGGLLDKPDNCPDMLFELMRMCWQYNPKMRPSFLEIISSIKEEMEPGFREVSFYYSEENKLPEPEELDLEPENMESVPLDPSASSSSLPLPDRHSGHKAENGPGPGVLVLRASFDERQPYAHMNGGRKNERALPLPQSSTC

[3] = biological target: T2, Receptor tyrosine-protein kinase erbB-2 (Homo sapiens, UniProt P04626); experiment: Inhibition of ErbB2 intracellular phosphorylation in human N87 cells by ELISA
T2 sequence (P04626 whole entry): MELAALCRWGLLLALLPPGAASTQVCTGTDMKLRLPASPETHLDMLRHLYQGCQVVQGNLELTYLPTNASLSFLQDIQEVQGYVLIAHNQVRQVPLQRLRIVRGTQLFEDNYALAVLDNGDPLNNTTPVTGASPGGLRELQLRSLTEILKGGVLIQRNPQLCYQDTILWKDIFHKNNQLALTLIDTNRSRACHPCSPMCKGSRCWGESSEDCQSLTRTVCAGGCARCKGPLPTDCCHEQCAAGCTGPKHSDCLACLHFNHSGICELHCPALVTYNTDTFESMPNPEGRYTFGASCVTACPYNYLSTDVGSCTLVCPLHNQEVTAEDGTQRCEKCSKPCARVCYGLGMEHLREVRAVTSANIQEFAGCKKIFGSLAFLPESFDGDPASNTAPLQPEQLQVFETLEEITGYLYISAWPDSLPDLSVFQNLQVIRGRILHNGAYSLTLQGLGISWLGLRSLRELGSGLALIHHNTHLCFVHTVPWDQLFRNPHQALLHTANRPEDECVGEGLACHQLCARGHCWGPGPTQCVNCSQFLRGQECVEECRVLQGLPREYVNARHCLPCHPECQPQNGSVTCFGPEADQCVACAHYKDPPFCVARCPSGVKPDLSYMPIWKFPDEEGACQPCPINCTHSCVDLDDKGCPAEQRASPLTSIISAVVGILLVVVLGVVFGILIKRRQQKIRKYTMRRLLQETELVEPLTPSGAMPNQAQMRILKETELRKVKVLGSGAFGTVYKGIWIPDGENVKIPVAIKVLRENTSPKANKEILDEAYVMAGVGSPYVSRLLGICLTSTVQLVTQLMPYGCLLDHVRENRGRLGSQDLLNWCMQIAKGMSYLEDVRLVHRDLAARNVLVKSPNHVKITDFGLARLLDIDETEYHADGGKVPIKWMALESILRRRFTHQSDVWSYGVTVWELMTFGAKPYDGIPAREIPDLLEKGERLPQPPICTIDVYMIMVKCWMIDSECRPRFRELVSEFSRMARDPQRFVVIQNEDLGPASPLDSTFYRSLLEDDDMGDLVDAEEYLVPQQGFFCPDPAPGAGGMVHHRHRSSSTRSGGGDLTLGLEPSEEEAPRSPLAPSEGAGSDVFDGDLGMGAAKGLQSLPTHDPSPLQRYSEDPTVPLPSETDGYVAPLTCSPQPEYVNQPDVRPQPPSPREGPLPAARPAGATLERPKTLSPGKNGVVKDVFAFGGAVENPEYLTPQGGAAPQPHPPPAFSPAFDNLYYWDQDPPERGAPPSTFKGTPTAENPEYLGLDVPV

[4] = biological target: Epidermal growth factor receptor (Homo sapiens, UniProt P00533)
Epidermal growth factor receptor (Homo sapiens, UniProt P00533), sequence (P00533 whole entry): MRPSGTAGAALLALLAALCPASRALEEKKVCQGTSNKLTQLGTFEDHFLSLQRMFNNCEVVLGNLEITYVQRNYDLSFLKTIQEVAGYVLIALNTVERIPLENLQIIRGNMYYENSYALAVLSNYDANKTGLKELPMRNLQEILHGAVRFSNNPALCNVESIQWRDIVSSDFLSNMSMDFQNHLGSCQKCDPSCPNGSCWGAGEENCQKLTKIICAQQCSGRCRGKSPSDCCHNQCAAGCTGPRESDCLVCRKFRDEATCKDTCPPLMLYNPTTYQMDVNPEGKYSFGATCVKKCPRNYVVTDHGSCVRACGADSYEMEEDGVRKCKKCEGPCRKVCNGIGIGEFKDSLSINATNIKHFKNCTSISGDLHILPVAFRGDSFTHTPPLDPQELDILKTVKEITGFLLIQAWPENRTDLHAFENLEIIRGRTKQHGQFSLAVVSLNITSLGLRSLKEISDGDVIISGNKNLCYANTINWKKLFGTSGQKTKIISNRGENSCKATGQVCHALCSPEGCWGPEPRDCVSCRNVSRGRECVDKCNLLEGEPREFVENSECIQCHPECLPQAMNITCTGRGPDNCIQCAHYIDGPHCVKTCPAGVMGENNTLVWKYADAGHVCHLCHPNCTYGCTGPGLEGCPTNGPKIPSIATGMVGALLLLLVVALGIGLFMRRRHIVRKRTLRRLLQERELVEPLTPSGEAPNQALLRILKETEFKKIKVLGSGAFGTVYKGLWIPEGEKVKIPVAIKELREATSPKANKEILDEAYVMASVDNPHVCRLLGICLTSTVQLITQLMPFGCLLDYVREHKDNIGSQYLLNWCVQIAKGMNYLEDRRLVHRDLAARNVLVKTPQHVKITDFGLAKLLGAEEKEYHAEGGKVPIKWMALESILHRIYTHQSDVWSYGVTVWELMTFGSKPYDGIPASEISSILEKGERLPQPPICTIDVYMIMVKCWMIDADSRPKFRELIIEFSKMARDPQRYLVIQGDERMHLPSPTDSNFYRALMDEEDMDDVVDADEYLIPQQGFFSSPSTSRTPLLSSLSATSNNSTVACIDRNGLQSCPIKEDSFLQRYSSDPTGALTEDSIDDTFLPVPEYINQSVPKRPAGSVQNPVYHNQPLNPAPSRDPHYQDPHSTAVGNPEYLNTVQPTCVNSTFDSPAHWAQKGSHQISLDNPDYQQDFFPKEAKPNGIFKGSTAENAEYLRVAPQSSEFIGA
Description: Inhibition of EGFR intracellular phosphorylation in human A431 cells by ELISA

[5] = biological target: T2, Receptor tyrosine-protein kinase erbB-2; experiment: Inhibition of ErbB2 by time resolved fluorescence assay
[6] = biological target: T1, Insulin-like growth factor 1 receptor; experiment: Inhibition of human recombinant IGF1R expressed in Sf21 cells by time resolved fluorescence assay
[7] = Inhibition of PKA
[8] = Inhibition of CK2
[9] = biological target: T3, Serine/threonine-protein kinase Sgk1 (Homo sapiens, UniProt O00141); experiment: Inhibition of SGK
T3 sequence (O00141 whole entry): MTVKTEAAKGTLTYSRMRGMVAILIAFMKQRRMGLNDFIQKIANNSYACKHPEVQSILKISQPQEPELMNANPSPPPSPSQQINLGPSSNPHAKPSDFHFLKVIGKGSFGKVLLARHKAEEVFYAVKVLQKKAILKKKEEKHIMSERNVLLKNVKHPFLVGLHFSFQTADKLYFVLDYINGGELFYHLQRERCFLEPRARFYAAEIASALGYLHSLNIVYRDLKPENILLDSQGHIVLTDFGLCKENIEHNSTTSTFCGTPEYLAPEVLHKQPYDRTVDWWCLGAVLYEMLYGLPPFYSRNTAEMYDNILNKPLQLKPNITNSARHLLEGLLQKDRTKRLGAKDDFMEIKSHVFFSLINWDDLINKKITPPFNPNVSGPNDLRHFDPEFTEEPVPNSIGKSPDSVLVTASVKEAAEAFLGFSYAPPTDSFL

[10] = biological target: Protein kinase C eta type (Homo sapiens, UniProt P24723); experiment: Inhibition of PKCeta
[11] = Inhibition of P70S6K
[12] = Inhibition of MAPKAPK
[13] = Inhibition of FGFR

Epidermal growth factor receptor (Homo sapiens, UniProt P00533, L858R), sequence (P00533 25-1210 L858R limits assumed): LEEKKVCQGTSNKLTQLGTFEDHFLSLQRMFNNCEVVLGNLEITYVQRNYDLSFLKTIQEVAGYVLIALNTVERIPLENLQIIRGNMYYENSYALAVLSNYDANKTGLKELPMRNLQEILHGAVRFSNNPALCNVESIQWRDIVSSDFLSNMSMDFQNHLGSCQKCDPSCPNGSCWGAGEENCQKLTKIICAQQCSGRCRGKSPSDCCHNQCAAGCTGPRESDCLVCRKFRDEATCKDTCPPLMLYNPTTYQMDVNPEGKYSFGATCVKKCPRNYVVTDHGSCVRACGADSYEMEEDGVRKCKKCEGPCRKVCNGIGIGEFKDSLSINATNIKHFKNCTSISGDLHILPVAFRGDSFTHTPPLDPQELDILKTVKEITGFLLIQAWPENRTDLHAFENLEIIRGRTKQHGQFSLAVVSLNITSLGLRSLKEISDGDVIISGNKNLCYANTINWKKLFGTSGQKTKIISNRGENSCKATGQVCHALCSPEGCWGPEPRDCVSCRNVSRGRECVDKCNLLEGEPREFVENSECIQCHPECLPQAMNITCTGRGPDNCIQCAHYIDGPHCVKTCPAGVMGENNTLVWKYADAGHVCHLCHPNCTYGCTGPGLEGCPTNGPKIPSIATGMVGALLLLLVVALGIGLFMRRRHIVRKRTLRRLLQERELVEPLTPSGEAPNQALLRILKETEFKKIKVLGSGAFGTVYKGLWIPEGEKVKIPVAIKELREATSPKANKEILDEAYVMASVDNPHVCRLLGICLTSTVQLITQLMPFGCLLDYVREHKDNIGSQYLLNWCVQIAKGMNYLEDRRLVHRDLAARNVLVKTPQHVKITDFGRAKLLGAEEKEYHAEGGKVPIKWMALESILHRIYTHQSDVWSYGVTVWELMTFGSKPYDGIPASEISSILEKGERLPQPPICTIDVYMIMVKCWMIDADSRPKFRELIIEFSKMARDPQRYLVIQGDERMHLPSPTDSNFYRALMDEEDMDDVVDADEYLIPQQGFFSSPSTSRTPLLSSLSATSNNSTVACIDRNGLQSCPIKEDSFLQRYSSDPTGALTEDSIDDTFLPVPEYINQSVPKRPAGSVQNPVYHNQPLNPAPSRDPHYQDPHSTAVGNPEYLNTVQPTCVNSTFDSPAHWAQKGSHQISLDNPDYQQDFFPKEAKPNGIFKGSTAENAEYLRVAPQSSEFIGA

Compound | pIC50 [1] | pIC50 [5] | pIC50 [6] | other results
CN(C)CCc1ccc(Nc2nccc(-c3c(-c4cccc(NC(=O)c5c(F)cccc5F)c4)nc4sccn34)n2)cc1 | 9.11 | 8.37 | 6.68 | pIC50 [2]: 6.48; pIC50 [3]: 7.57; pIC50 [4]: 6.66
O=C(Nc1cccc(-c2nc3sccn3c2-c2ccnc(Nc3ccc(N4CCOCC4)cc3)n2)c1)c1c(F)cccc1F | 8.72 | 7.07 | 5.89 | 
O=C(Nc1cccc(-c2nc3sccn3c2-c2ccnc(Nc3ccc(N4CCOCC4)cc3)n2)c1)Oc1ccccc1 | 6.72 | 6.77 | 6.35 | 
CCN1CCN(c2ccc(Nc3nccc(-c4c(-c5cccc(NC(=O)Cc6ccccc6)c5)nc5sccn45)n3)cc2)CC1 |  | 6.77 | 7.28 | pIC50 [2]: 7.39; pIC50 [3]: 6.51
Nc1nc2ccc(-c3c(-c4cccc(NC(=O)c5ccccc5Cl)c4)nc4sccn34)cc2[nH]1 | < 4.90 | < 4.90 | < 4.90 | 
O=C(Cc1ccccc1)Nc1cccc(-c2nc3sccn3c2-c2ccnc(Nc3cccc(N4CCOCC4)c3)n2)c1 |  |  |  | pIC50 [7]: < 6.00; pIC50 [8]: < 6.00; pIC50 [9]: < 6.00; pIC50 [10]: < 6.00; pIC50 [11]: < 6.00; pIC50 [12]: < 6.00; pIC50 [13]: 6.05
O=C(Nc1ccccc1)Nc1cccc(-c2nc3sccn3c2-c2ccnc(Nc3ccc(N4CCOCC4)cc3)n2)c1 | 7.00 | 6.77 | 6.23 | 
CN1CCc2cc(Nc3nccc(-c4c(-c5cccc(NC(=O)Cc6ccccc6)c5)nc5sccn45)n3)ccc2C1 | 7.24 | 6.80 | 7.09 | 
O=C(Nc1cccc(-c2nc3sccn3c2-c2ccncc2)c1)c1ccccc1Cl | 6.62 | 6.62 | < 4.90 | 
O=C(CC1CCCC1)Nc1cccc(-c2nc3sccn3c2-c2ccnc(Nc3ccc(N4CCOCC4)cc3)n2)c1 | 6.18 | 5.89 | 6.24 | 
O=C(Nc1cccc(-c2nc3sccn3c2-c2ccnc(Nc3ccc(N4CCOCC4)cc3)n2)c1)c1ccccc1 | 8.10 | 8.32 | 5.82 | 
CCN1CCN(c2ccc(Nc3nccc(-c4c(-c5cccc(NC(=O)c6c(F)cccc6F)c5)nc5sccn45)n3)cc2)CC1 | 9.02 | 7.85 | 6.64 | pIC50 [2]: 6.70; pIC50 [3]: 7.16; pIC50 [4]: 7.30
O=C(Nc1cccc(-c2nc3sccn3c2-c2ccnc(Nc3ccc4c(c3)CCNC4)n2)c1)c1c(F)cccc1F | 8.64 | 8.14 | 7.00 | 
O=C(CC1CCCCC1)Nc1cccc(-c2nc3sccn3c2-c2ccnc(Nc3ccc(N4CCOCC4)cc3)n2)c1 | 6.06 | 5.85 | 5.96 | 
O=[N+]([O-])c1cccc(-c2nc3sccn3c2-c2ccnc(Nc3ccccc3)n2)c1 |  | 5.22 | < 4.90 | 
O=C(Cc1ccccc1)Nc1cccc(-c2nc3sccn3c2-c2ccnc(Nc3ccc4c(c3)CCNC4)n2)c1 | 8.19 | 7.26 | 7.57 | pIC50 [2]: 6.74; pIC50 [3]: 6.92; pIC50 [4]: 6.00
CN(C)CCc1cccc(Nc2nccc(-c3c(-c4cccc(NC(=O)Cc5ccccc5)c4)nc4sccn34)n2)c1 | 7.62 | 6.82 |  | 
O=C(Nc1cccc(-c2nc3sccn3c2-c2ccnc(Nc3cccc(N4CCOCC4)c3)n2)c1)c1c(F)cccc1F | 8.21 | 7.07 | 5.42 | 
O=C(Nc1cccc(-c2nc3sccn3c2-c2ccnc(Nc3ccccc3)n2)c1)c1ccccc1Cl | 7.08 | 7.46 | < 4.90 | 
O=C(Nc1cccc(-c2nc3sccn3c2-c2ccnc(Nc3ccccc3)n2)c1)c1ccccc1 | 7.26 | 8.20 | < 4.90 | 
